Source: PubChem BioAssay AID330 (DTP/NCI, 2004)
“And” between values parts separate entries of the source, which are not always exact repeats. Equal entries are not always repeated. Inconclusive results and toxic doses are left out. How the source made its calls: active means survival T/C of 150% or more; inactive means T/C below 125% in these data.

System: P388 leukemia ip, CD2F1 mice, survival T/C
Assay: NCI In Vivo Anticancer Drug Screen. Data for tumor model P388 Leukemia (intraperitoneal) in CD2F1 (CDF1) mice
Conditions: endpoint: median survival time, higher = longer survival
Method in brief: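 Mice carrying the transplanted tumor received test compound or vehicle. Survival was recorded in each group, and the value is the treated-group measurement divided by that of the vehicle-treated control group.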

[1] = dose: 50.0 mg/kg/injection, schedule: Q01DX005 (ip), vehicle: saline with Tween-80
[2] = dose: 100.0 mg/kg/injection, schedule: Q01DX005 (ip), vehicle: saline with Tween-80
[3] = dose: 200.0 mg/kg/injection, schedule: Q01DX005 (ip), vehicle: saline with Tween-80
[4] = dose: 50.0 mg/kg/injection, schedule: Q01DX005 (ip), vehicle: Klucel (hydroxypropylcellulose) (HPC)
[5] = dose: 100.0 mg/kg/injection, schedule: Q01DX005 (ip), vehicle: Klucel (hydroxypropylcellulose) (HPC)
[6] = dose: 200.0 mg/kg/injection, schedule: Q01DX005 (ip), vehicle: Klucel (hydroxypropylcellulose) (HPC)
[7] = dose: 100.0 mg/kg/injection, schedule: Q01DX001 (ip), vehicle: Klucel (hydroxypropylcellulose) (HPC)
[8] = dose: 100.0 mg/kg/injection, schedule: Q04DX003 (ip), vehicle: saline with Tween-80
[9] = dose: 200.0 mg/kg/injection, schedule: Q04DX003 (ip), vehicle: saline with Tween-80

Measured: T/C

O=S1(c2ccccc2)=NC(=S)Nc2ccccc21 (stereo not given)
inactive: dose: 50.0 mg/kg/injection, schedule: Q01DX009 (ip), vehicle: saline with Tween-80 111 % of control | dose: 100.0 mg/kg/injection, schedule: Q01DX009 (ip), vehicle: saline with Tween-80 102 % of control | dose: 200.0 mg/kg/injection, schedule: Q01DX009 (ip), vehicle: saline with Tween-80 98 % of control

Cc1ccc2c(c1)C1(SCCC(=O)N1c1ccc(Cl)cc1)C(=O)N2 (stereo not given)
inactive: [1] 103 % of control | [2] 95 % of control | [3] 100 % of control

CNC(=O)Oc1ccc(Nc2ccccc2)cc1
inactive: dose: 60.0 mg/kg/injection, schedule: Q01DX005 (ip), vehicle: Klucel (hydroxypropylcellulose) (HPC) 105 % of control | dose: 120.0 mg/kg/injection, schedule: Q01DX005 (ip), vehicle: Klucel (hydroxypropylcellulose) (HPC) 99 % of control | dose: 240.0 mg/kg/injection, schedule: Q01DX005 (ip), vehicle: Klucel (hydroxypropylcellulose) (HPC) 97 % of control

CCOc1ccc(NC(=O)N(c2ccnc3ccccc23)C(C)CCCN(CC)CC)cc1 (stereo not given)
inactive: [4] 98 % of control | [5] 103 % of control | [6] 98 % of control

CN1C(=O)/C(=[N+](/[O-])c2ccccc2-c2ccccc2)c2ccccc21
inactive: dose: 100.0 mg/kg/injection, schedule: Q04DX002 (ip), vehicle: saline with Tween-80 99 % of control | dose: 200.0 mg/kg/injection, schedule: Q04DX002 (ip), vehicle: saline with Tween-80 100 % of control | dose: 400.0 mg/kg/injection, schedule: Q04DX002 (ip), vehicle: saline with Tween-80 97 % of control

N=c1ccn2c(n1)OC1C(O)C(CCl)OC12 (stereo not given)
inactive: dose: 6.25 mg/kg/injection, schedule: Q01DX009 (ip), vehicle: saline 108 % of control | dose: 12.5 mg/kg/injection, schedule: Q01DX009 (ip), vehicle: saline 111 % of control | dose: 25.0 mg/kg/injection, schedule: Q01DX009 (ip), vehicle: saline 106 % of control and 92 % of control | dose: 50.0 mg/kg/injection, schedule: Q01DX009 (ip), vehicle: saline 103 % of control and 106 % of control | dose: 100.0 mg/kg/injection, schedule: Q01DX009 (ip), vehicle: saline 100 % of control and 107 % of control | dose: 200.0 mg/kg/injection, schedule: Q01DX009 (ip), vehicle: saline 110 % of control and 117 % of control

NC(=O)N/N=C1\CCC2CCCCC2C1 (stereo not given)
inactive: dose: 25.0 mg/kg/injection, schedule: Q01DX001 (ip), vehicle: Klucel (hydroxypropylcellulose) (HPC) 107 % of control | dose: 50.0 mg/kg/injection, schedule: Q01DX001 (ip), vehicle: Klucel (hydroxypropylcellulose) (HPC) 101 % of control | [7] 100 % of control

N#CCCSC(=S)C(C#N)C(=N)c1ccccc1 (stereo not given)
inactive: dose: 25.0 mg/kg/injection, schedule: Q04DX003 (ip), vehicle: Klucel (hydroxypropylcellulose) (HPC) 108 % of control | dose: 50.0 mg/kg/injection, schedule: Q04DX003 (ip), vehicle: Klucel (hydroxypropylcellulose) (HPC) 110 % of control | dose: 100.0 mg/kg/injection, schedule: Q04DX003 (ip), vehicle: Klucel (hydroxypropylcellulose) (HPC) 104 % of control and 92 % of control | dose: 200.0 mg/kg/injection, schedule: Q04DX003 (ip), vehicle: Klucel (hydroxypropylcellulose) (HPC) 92 % of control | dose: 400.0 mg/kg/injection, schedule: Q04DX003 (ip), vehicle: Klucel (hydroxypropylcellulose) (HPC) 96 % of control

COc1cc(/C=C/C=C(C(=O)O)C(=O)O)ccc1OCc1ccccc1
inactive: [4] 100 % of control | [5] 98 % of control | [6] 92 % of control

CCCN1C(=O)Cc2ccccc21
inactive: [7] 95 % of control | dose: 200.0 mg/kg/injection, schedule: Q01DX001 (ip), vehicle: Klucel (hydroxypropylcellulose) (HPC) 97 % of control | dose: 400.0 mg/kg/injection, schedule: Q01DX001 (ip), vehicle: Klucel (hydroxypropylcellulose) (HPC) 100 % of control

CCOC(=O)C1=C(C(=O)c2ccc(OC)cc2)C(c2c(Cl)cccc2Cl)C(C(=O)c2ccc(OC)cc2)=C(C(=O)OCC)N1
inactive: dose: 30.0 mg/kg/injection, schedule: Q01DX005 (ip), vehicle: saline with Tween-80 86 % of control | dose: 60.0 mg/kg/injection, schedule: Q01DX005 (ip), vehicle: saline with Tween-80 102 % of control and 93 % of control | dose: 120.0 mg/kg/injection, schedule: Q01DX005 (ip), vehicle: saline with Tween-80 94 % of control | dose: 240.0 mg/kg/injection, schedule: Q01DX005 (ip), vehicle: saline with Tween-80 93 % of control

CCCCCC1(c2ccccc2)CCCC(C#N)C1=O (stereo not given)
inactive: [8] 101 % of control | [9] 88 % of control

CCO/C=C1\SC(=S)N(c2ccco2)C1=O
inactive: [8] 118 % of control | [9] 118 % of control | dose: 400.0 mg/kg/injection, schedule: Q04DX003 (ip), vehicle: saline with Tween-80 104 % of control

CCN(CC)CC.[CH-]1CCCCC1.[CH-]1CCCCC1.[CH-]1CCCCC1.[Cl-].[N-]=C=NC(=O)NC1CCCCC1.[Sn+4]
inactive: dose: 1.5 mg/kg/injection, schedule: Q01DX005 (ip), vehicle: Klucel (hydroxypropylcellulose) (HPC) 92 % of control | dose: 3.0 mg/kg/injection, schedule: Q01DX005 (ip), vehicle: Klucel (hydroxypropylcellulose) (HPC) 92 % of control | dose: 6.0 mg/kg/injection, schedule: Q01DX005 (ip), vehicle: Klucel (hydroxypropylcellulose) (HPC) 102 % of control and 92 % of control

CC1(C)CC[C@]2(C(=O)O)CC[C@]3(C)C(=CC[C@@H]4[C@@]5(C)C[C@H](O)[C@H](O)[C@@](C)(C(=O)O)[C@@H]5CC[C@]43C)[C@@H]2C1
inactive: dose: 1.1 mg/kg/injection, schedule: Q01DX005 (ip), vehicle: Klucel (hydroxypropylcellulose) (HPC) 91 % of control | dose: 2.12 mg/kg/injection, schedule: Q01DX005 (ip), vehicle: Klucel (hydroxypropylcellulose) (HPC) 89 % of control | dose: 4.25 mg/kg/injection, schedule: Q01DX005 (ip), vehicle: Klucel (hydroxypropylcellulose) (HPC) 100 % of control and 91 % of control | dose: 8.5 mg/kg/injection, schedule: Q01DX005 (ip), vehicle: Klucel (hydroxypropylcellulose) (HPC) 88 % of control and 90 % of control | dose: 17.0 mg/kg/injection, schedule: Q01DX005 (ip), vehicle: Klucel (hydroxypropylcellulose) (HPC) 92 % of control and 93 % of control | dose: 34.0 mg/kg/injection, schedule: Q01DX005 (ip), vehicle: Klucel (hydroxypropylcellulose) (HPC) 87 % of control

CSc1nc2n(C)cc(C)cc-2c(=O)n1
inactive: dose: 25.0 mg/kg/injection, schedule: Q01DX001 (ip), vehicle: saline with Tween-80 97 % of control | dose: 50.0 mg/kg/injection, schedule: Q01DX001 (ip), vehicle: saline with Tween-80 97 % of control | dose: 100.0 mg/kg/injection, schedule: Q01DX001 (ip), vehicle: saline with Tween-80 99 % of control

CSc1nc2ncnc(N)c2[nH]1
inactive: [1] 93 % of control | [2] 96 % of control | [3] 108 % of control

O=C(CCn1[nH]c(=O)c(Cl)c(Cl)c1=O)NNc1ccc([N+](=O)[O-])cc1[N+](=O)[O-]
inactive: [1] 92 % of control | [2] 103 % of control | [3] 92 % of control

O=C1OCc2c1[nH]c(=O)[nH]c2=O
inactive: dose: 6.25 mg/kg/injection, schedule: Q01DX009 (ip), vehicle: distilled water + Tween-80 105 % of control | dose: 12.5 mg/kg/injection, schedule: Q01DX009 (ip), vehicle: distilled water + Tween-80 96 % of control | dose: 25.0 mg/kg/injection, schedule: Q01DX009 (ip), vehicle: distilled water + Tween-80 110 % of control | dose: 50.0 mg/kg/injection, schedule: Q01DX009 (ip), vehicle: distilled water + Tween-80 100 % of control | dose: 100.0 mg/kg/injection, schedule: Q01DX009 (ip), vehicle: distilled water + Tween-80 105 % of control and 109 % of control | dose: 200.0 mg/kg/injection, schedule: Q01DX009 (ip), vehicle: distilled water + Tween-80 98 % of control | dose: 400.0 mg/kg/injection, schedule: Q01DX009 (ip), vehicle: distilled water + Tween-80 90 % of control

CCC1OC(=O)CC(O)C(C)C(OC2OC(C)C(O)C(N(C)C)C2O)C(CC=O)CC(C)C(=O)/C=C/C2(C)OC2C1C (stereo not given)
inactive: dose: 9.38 mg/kg/injection, schedule: Q01DX009 (ip), vehicle: Klucel (hydroxypropylcellulose) (HPC) 110 % of control | dose: 9.4 mg/kg/injection, schedule: Q01DX009 (ip), vehicle: Klucel (hydroxypropylcellulose) (HPC) 95 % of control | dose: 18.75 mg/kg/injection, schedule: Q01DX009 (ip), vehicle: Klucel (hydroxypropylcellulose) (HPC) 101 % of control and 119 % of control | dose: 37.5 mg/kg/injection, schedule: Q01DX009 (ip), vehicle: Klucel (hydroxypropylcellulose) (HPC) 103 % of control | dose: 75.0 mg/kg/injection, schedule: Q01DX009 (ip), vehicle: Klucel (hydroxypropylcellulose) (HPC) 101 % of control and 123 % of control | dose: 150.0 mg/kg/injection, schedule: Q01DX009 (ip), vehicle: Klucel (hydroxypropylcellulose) (HPC) 124 % of control
